A short description of experiment [1]: Filaricidal activity against Litomosoides carinii in cotton rats at a dosage of 6 mg/kg x 5 administered intraperitoneally at a day of 8. The note with it: route intraperitoneal.
Experiment [2] has as its system Mastomys natalensis. In words: Filaricidal activity against Brugia malayi in Mastomys at a dosage of 50 mg/kg x 5 administered intraperitoneally at a day of 21. The experiment is classed as functional. The note with it: route intraperitoneal.
Experiment [3] concerns Mastomys natalensis. In words: Filaricidal activity against Brugia malayi in Mastomys at a dosage of 50 mg/kg x 5 administered intraperitoneally. It is filed as functional. The note with it: route intraperitoneal.
In experiment [4] the test system is Mastomys natalensis. In words: Filaricidal activity against Brugia malayi in Mastomys at a dosage of 50 mg/kg x 5 administered intraperitoneally at a day of 8. It is filed as functional. The note with it: route intraperitoneal.
Experiment [5] deals with Mastomys natalensis. Put plainly: Filaricidal activity against Dipetalonema viteae in Mastomys at a dosage of 175 mg/kg x 5 administered subcutaneous. The experiment is classed as functional.
For experiment [6], the system named is Mastomys natalensis. In words: Filaricidal activity against Dipetalonema viteae in Mastomys at a dosage of 175 mg/kg x 5 administered subcutaneous at a day of 21. It is filed as functional.
For experiment [7], the system named is Mastomys natalensis. Put plainly: Filaricidal activity against Dipetalonema viteae in Mastomys at a dosage of 175 mg/kg x 5 administered subcutaneous at a day of 8. The experiment is classed as functional.
Experiment [8] relates to Mastomys natalensis. Put plainly: Filaricidal activity against Brugia malayi in Mastomys at a dosage of 50 mg/kg x 5 administered intraperitoneally at a day of 42. The experiment is classed as functional. The note with it: route intraperitoneal.
Experiment [9] relates to Rattus norvegicus. In words: Filaricidal activity against Litomosoides carinii in cotton rats at a dosage of 6 mg/kg x 5 administered intraperitoneally. The experiment is classed as functional. The note with it: route intraperitoneal.
In experiment [10] the test system is Mastomys natalensis. In words: Filaricidal activity against Brugia malayi in Mastomys at a dosage of 50 mg/kg x 5 administered intraperitoneally at a day of 91. The note with it: route intraperitoneal. The experiment is classed as functional.
The subject of experiment [11] is Mastomys natalensis. Put plainly: Filaricidal activity against Dipetalonema viteae in Mastomys at a dosage of 175 mg/kg x 5 administered subcutaneous at a day of 42. It is filed as functional.
Experiment [12] relates to Mastomys natalensis. In words: Filaricidal activity against Brugia malayi in Mastomys at a dosage of 50 mg/kg x 5 administered intraperitoneally at a day of 63. The note with it: route intraperitoneal. It is filed as functional.
The test system of experiment [13] is Cricetinae gen. sp. Put plainly: Anthelmintic activity against Ancylostoma ceylanicum in hamsters at a dose of 0.5x1 mg/kg administered perorally. It is filed as functional, Cricetulus griseus.
In experiment [14] the test system is Mastomys natalensis. In words: Filaricidal activity against Dipetalonema viteae in Mastomys at a dosage of 6.25 mg/kg x 5 administered subcutaneous at a day of 42. The experiment is classed as functional.
The subject of experiment [15] is Rattus norvegicus. In words: Anthelmintic activity against Hymenolepis nana in rats at a dose of 400x3 mg/kg administered perorally. The experiment is classed as functional.
Experiment [16] deals with Cricetinae gen. sp. In words: Anthelmintic activity against Ancylostoma ceylanicum (hook worm) in hamsters at a dose of 1x 1 mg/kg administered perorally. It is filed as functional, Cricetulus griseus. The note with it: route oral.
In experiment [17] the test system is Mastomys natalensis. In words: Filaricidal activity against Brugia malayi in Mastomys at a dosage of 200 mg/kg x 5 administered orally at a day of 42. The experiment is classed as functional. The note with it: route oral.
For experiment [18], the system named is Mastomys natalensis. In words: Filaricidal activity against Dipetalonema viteae in Mastomys at a dosage of 300 mg/kg x 5 administered orally at a day of 8. The note with it: route oral. The experiment is classed as functional.
The subject of experiment [19] is Mastomys natalensis. Put plainly: Filaricidal activity against Dipetalonema viteae in Mastomys at a dosage of 300 mg/kg x 5 administered orally. The experiment is classed as functional. The note with it: route oral.
Experiment [20] concerns Cricetinae gen. sp. Put plainly: Anthelmintic activity against Ancylostoma ceylanicum in hamsters at a dose 1x 1 mg/kg administered perorally. It is filed as functional, Cricetulus griseus. The note with it: route oral.
Experiment [21] relates to Mastomys natalensis. In words: Filaricidal activity against Brugia malayi in Mastomys at a dosage of 200 mg/kg x 5 administered orally at a day of 63. The experiment is classed as functional. The note with it: route oral.
The test system of experiment [22] is Rattus norvegicus. In words: Filaricidal activity against Litomosoides carinii in cotton rats at a dosage of 300 mg/kg x 5 administered orally at a day of 8. It is filed as functional. The note with it: route oral.
Experiment [23] relates to Mastomys natalensis. Put plainly: Filaricidal activity against Brugia malayi in Mastomys at a dosage of 200 mg/kg x 5 administered orally at a day of 21. It is filed as functional. The note with it: route oral.
For experiment [24], the system named is Rattus norvegicus. Put plainly: Filaricidal activity against Litomosoides carinii in cotton rats at a dosage of 10 mg/kg x 5 administered intraperitoneally at a day of 42. It is filed as functional. The note with it: route intraperitoneal.
Experiment [25] relates to Rattus norvegicus. In words: Filaricidal activity against Litomosoides carinii in cotton rats at a dosage of 300 mg/kg x 5 administered orally at a day of 42. The note with it: route oral. The experiment is classed as functional.
Experiment [26] deals with Mastomys natalensis. In words: Filaricidal activity against Dipetalonema viteae in Mastomys at a dosage of 6.25 mg/kg x 5 administered subcutaneous. It is filed as functional.
Experiment [27] has as its system Mastomys natalensis. In words: Filaricidal activity against Dipetalonema viteae in Mastomys at a dosage of 300 mg/kg x 5 administered orally at a day of 42. The note with it: route oral. It is filed as functional.
A further experiment relates to Litomosoides carinii. In words: Filaricidal activity against Litomosoides carinii in cotton rats at a dosage of 300 mg/kg x 5 administered orally. The note with it: route oral.
The subject of experiment [28] is Mastomys natalensis. In words: Filaricidal activity against Brugia malayi in Mastomys at a dosage of 200 mg/kg x 5 administered orally. It is filed as functional. The note with it: route oral.
Experiment [29] deals with Sigmodon hispidus. Put plainly: Filaricidal activity against Litomosoides carinii in cotton rats at a dosage of 10 mg/kg x 5 administered intraperitoneally at a day of 8. The note with it: route intraperitoneal.
Experiment [30] has as its system Mus musculus. Put plainly: Anthelmintic activity against Syphacia obvelata in mice at a dose of 100x1 mg/kg administered perorally. The experiment is classed as functional.
For experiment [31], the system named is Mastomys natalensis. In words: Filaricidal activity against Dipetalonema viteae in Mastomys at a dosage of 300 mg/kg x 5 administered orally at a day of 21. The experiment is classed as functional. The note with it: route oral.
Experiment [32] deals with Sigmodon hispidus. Put plainly: Filaricidal activity against Litomosoides carinii in cotton rats at a dosage of 10 mg/kg x 5 administered intraperitoneally at a day of 21. The note with it: route intraperitoneal.
Experiment [33] relates to Mastomys natalensis. Put plainly: Filaricidal activity against Brugia malayi in Mastomys at a dosage of 200 mg/kg x 5 administered orally at a day of 91. The note with it: route oral. The experiment is classed as functional.
The subject of experiment [34] is Mastomys natalensis. Put plainly: Filaricidal activity against Dipetalonema viteae in Mastomys at a dosage of 6.25 mg/kg x 5 administered subcutaneous at a day of 8. It is filed as functional.
Experiment [35] deals with Mastomys natalensis. Put plainly: Filaricidal activity against Dipetalonema viteae in Mastomys at a dosage of 6.25 mg/kg x 5 administered subcutaneous at a day of 21. The experiment is classed as functional.
The subject of experiment [36] is Mus musculus. In words: Anthelmintic activity against Syphacia obvelata in mice at a dose of 50x1 mg/kg administered perorally. It is filed as functional.
The test system of experiment [37] is Rattus norvegicus. Put plainly: Filaricidal activity against Litomosoides carinii in cotton rats at a dosage of 300 mg/kg x 5 administered orally at a day of 21. It is filed as functional. The note with it: route oral.
In experiment [38] the test system is Sigmodon hispidus. Put plainly: Filaricidal activity against Litomosoides carinii in cotton rats at a dosage of 10 mg/kg x 5 administered intraperitoneally at a day of 42. The note with it: route intraperitoneal.
The subject of experiment [39] is Mastomys natalensis. In words: Filaricidal activity against Brugia malayi in Mastomys at a dosage of 200 mg/kg x 5 administered orally at a day of 8. It is filed as functional. The note with it: route oral.

On to `CCN(CC)C(=O)N1CCN(C)CC1` [DIETHYLCARBAMAZINE], for which the Removal of microfilariae in [1] is given as 97.1%; in the experiment with Mastomys natalensis [2], 88.6%; in the experiment with Mastomys natalensis [4], 95.9%; in the experiment with Mastomys natalensis [6], 94.1%; in the experiment on Mastomys natalensis [7] it was 99.6%; in the experiment with Mastomys natalensis [8], 90.7%. For the same compound, the Removal of microfilariae came to 91.6% with Mastomys natalensis [10], 51.6% with Mastomys natalensis [11] and 71.6% with Mastomys natalensis [12]. Moreover, the Death in the experiment with Mastomys natalensis [3] was 57.8%; with Mastomys natalensis [5], 0%; in the experiment with Rattus norvegicus [9] it was 0%.
Regarding `COC(=O)Nc1nc2cc(C(=O)c3ccccc3)ccc2[nH]1` [MEBENDAZOLE], the Removal of microfilariae was determined as 65.3% in the experiment with Mastomys natalensis [2]; 0% with Mastomys natalensis [4]; 100% in the experiment on Mastomys natalensis [14]; 0% in the experiment on Mastomys natalensis [17]; 0% with Mastomys natalensis [18]; 0% in the experiment on Mastomys natalensis [21]. The Removal of microfilariae with Rattus norvegicus [22] stood at 48.8%; with Mastomys natalensis [23] it was 0%; with Rattus norvegicus [25] it was 74.3%; in the experiment with Mastomys natalensis [8], 100%; with Mastomys natalensis [27] it was 100%; in the experiment on Sigmodon hispidus [29] it was 58.6%. For the same compound, the Removal of microfilariae in the experiment with Mastomys natalensis [31] worked out at 85.5%; in the experiment with Sigmodon hispidus [32], 96.3%; in the experiment on Mastomys natalensis [10] it was 100%; in the experiment on Mastomys natalensis [33], 0%; with Mastomys natalensis [34] it was 53.1%; in the experiment with Mastomys natalensis [35], 100%. Also, the Removal of microfilariae with Rattus norvegicus [37] was 57.7%; in the experiment with Sigmodon hispidus [38] it was 100%; in the experiment on Mastomys natalensis [12], 100%; in the experiment on Mastomys natalensis [39], 0%. The Death in the experiment on Mastomys natalensis [3] is on record as 100%; with Mastomys natalensis [19], 85.4%; in the experiment with Rattus norvegicus [24] it was 100%; in the experiment with Mastomys natalensis [26], 100%; with Litomosoides carinii, 33.8%; in the experiment with Mastomys natalensis [28] it was 0%. In addition, the Animals cured is listed as 37.5% with Cricetinae gen. sp. [13]; 0% with Rattus norvegicus [15]; 100% in the experiment on Cricetinae gen. sp. [20]; 66.6% with Mus musculus [30]; 0% in the experiment on Mus musculus [36]. For the same compound, the Worm reduction in the experiment with Cricetinae gen. sp. [13] turned out to be 72%; in the experiment on Cricetinae gen. sp. [16] it was 100%.

The record behind these values is ChEMBL document CHEMBL1123320, “Studies in potential filaricides. 18. Synthesis of 2,2'-disubstituted 5,5'-dibenzimidazolyl ketones and related compounds as potential anthelmintics” (1986).
